“Also recorded” adds a separate entry of the source. Read-outs that look alike come from different tables or passages of the source.
Assays:
VIM-2 = biological target: T1, VIM-2 (Escherichia coli, UniProt Q5U7L7); assay: biochemical; format: biochemical; conditions: for differences between the inhibitory activity with or without excess Zn(II): 0 μM, 1 μM and 100 μM Zn(II)
T1 construct: made in house; host or cells: Escherichia coli
Protocol: (§1) Except where noted, recombinant forms of NDM-1, VIM-2, SPM-1, IMP-1, and BcII MBLs were produced in Escherichia coli and assays were carried out as described previously10. The IC50 values of all the compounds for VIM-2 were determined using […]
concentrations (0 μM, 1 μM, and 100 μM, see Fig. S8). The selectivity profiles of […]
as described above. The inhibitory activities of these compounds against CphA (B2 […]
MBL; IMP, Imipenemase; NDM, New Delhi MBL; TEM-1: Temomeira-type 1 […]
b The enzyme concentrations of the purified proteins were determined by measuring Abs@280nm using a NanoDrop (ThermoFisher) spectrometer and calculated molar extinction coefficient for each sample; concentrations of diluted solutions used in the assay were calculated from the original concentration. […]
negative controls. These were tested in same assay conditions but at 2mM instead of 100uM compound concentration. […]

VIM-1 = VIM-1 (Pseudomonas aeruginosa, UniProt A0A0F7KYQ8); assay: biochemical; conditions: n ≥ 3
apo-VIM-2 = apo-VIM-2 (Escherichia coli, UniProt Q5U7L7); format: binding; conditions: 50 μM apo enzyme, 50 μM compound, 50 mM Tris-D11 pH 7.5
Protocol: (§2) Except where noted, recombinant forms of NDM-1, VIM-2, SPM-1, IMP-1, and BcII MBLs were produced in Escherichia coli and assays were carried out as described […]
(§3) previously10. […]
(§4) Nuclear Magnetic Resonance (NMR) spectra were recorded using a Bruker AVIII 600 MHz NMR spectrometer equipped with a BB-19F/1H Prodigy N2 cryoprobe using 5 mm diameter NMR tubes (Norell). Typical experimental parameters for Carr-Purcell-Meiboom-Gill (CPMG) NMR spectroscopy were: total echo time, 40 ms; […]
(§5) The PROJECT-CPMG sequence
(§6) (90°x−[τ−180°y−τ−90°y−τ−180°y−τ]n−acq) was applied. 15 Water suppression was achieved by pre-saturation. Data were processed with Bruker 3.1 software. Prior to […]
(§7) Fourier transformation, data were multiplied with an exponential function with 0.5 Hz […]
(§8) line broadening. […]

di-Zn(II) VIM-2 = biological target: T2, di-Zn(II) VIM-2 (Escherichia coli, UniProt Q5U7L7); format: binding; conditions: 50 μM enzyme, 50 μM Zn(II), 50 μM compound, 50 mM Tris-D11 pH 7.5
T2 construct: made in house
Protocol: as §2, §3, §4, §5, §6, §7, §8

class B MBLs = assay: Selectivity profile against class B MBLs (Fig. S21); format: biochemical
Protocol: The 1H NMR and 13C NMR spectra for compounds 34a, 34b, 34, 35a, 35b, and 35 […]
as §1
the FC-5 based assay10. […]
concentrations (0 μM, 1 μM, and 100 μM, see Fig. S8). The selectivity profiles of compounds of interest against other B1 MBLs including VIM-511, VIM-110, NDM-1, SPM-1, and BcII, and TEM-112 (class A SBL) were determined using the same method as described above. The inhibitory activities of these compounds against CphA (B2 MBL)13 and L1 (B3 MBL)14 were determined using meropenem and nitrocefin, […]
at 100 μM. The details regarding enzyme concentrations, substrate concentration are in […]
Nuclear Magnetic Resonance (NMR) spectra were recorded using a Bruker AVIII 600 MHz NMR spectrometer equipped with a BB-19F/1H Prodigy N2 cryoprobe using 5 mm diameter NMR tubes (Norell). Typical experimental parameters for Carr-Purcell-Meiboom-Gill (CPMG) NMR spectroscopy were: total echo time, 40 ms; relaxation delay, 2 s; and number of transients, 128. The PROJECT-CPMG sequence (90°x−[τ−180°y−τ−90°y−τ−180°y−τ]n−acq) was applied. 15 Water suppression was achieved by pre-saturation. Data were processed with Bruker 3.1 software. Prior to […]

[1] = FC-5 based assay, n ≥ 3, read-out: IC50 (VIM-2)
[2] = FC-5 based assay, n ≥ 3, read-out: pIC50 (VIM-2) (converted)

SMILES | IC50 (VIM-2; [1]) [µM] | IC50 (VIM-1) [µM] | further results
O=C(O)c1cccc2c1C(=O)N(Cc1ccncc1)C2 [Compound 22] | > 400 | > 400 | –
O=C(O)c1cccc(/C=N/N=C/c2cccc(C(=O)O)c2O)c1O [Compound 18] | 117 | – | binding to apo-VIM-2 by 1H CPMG NMR (apo-VIM-2): binding; also recorded: binds; binding to di-Zn(II) VIM-2 by 1H CPMG NMR (di-Zn(II) VIM-2): binding; also recorded: binds
O=C(O)C1CC(c2ccccc2F)=NO1 (stereo not shown) [Compound 2] | 993 | – | –
Cc1c/c(=N\c2ccccc2C(=O)O)n2ncnc2[nH]1 [Compound 8] | > 1600 | – | –
Cc1oc2c(c1C(=O)O)C(=O)CC(c1ccccc1)C2 (stereo not shown) [Compound 10] | > 1600 | – | –
NC(=O)N/N=C/c1cccc(C(=O)O)c1O [Compound 3] | > 1600 | – | –
C=CCC1c2cccc(C(=O)OC)c2C(=O)N1c1ccccc1 (stereo not shown) [Compound 43] | > 400 | > 400 | inhibitory activity against VIM-2 (in words) (VIM-2): much lower inhibitory potency
C[C@H](CS)C(=O)N1CCC[C@H]1C(=O)O [L-Captopril, reference compound] | – | – | binding to apo-VIM-2 by 1H CPMG NMR (apo-VIM-2): very weak binding; also recorded: very weakly; binding to di-Zn(II) VIM-2 by 1H CPMG NMR (di-Zn(II) VIM-2): strong binding; also recorded: binds strongly
O=C(O)/C=C/C(=O)c1ccc(O)cc1 [Compound 1] | – | – | IC50 (VIM-2; IC50 (VIM-2)): 637 µM
O=C(O)CC1CC(c2ccc(F)cc2)=NO1 (stereo not shown) [Compound 4] | 557 | – | –
O=C(Cc1ccc(Cl)cc1)c1ccc(O)cc1O [Compound 6] | 111 | – | differences between the inhibitory activity with or without excess Zn(II) (VIM-2): no obvious differences; binding to apo-VIM-2 by 1H CPMG NMR (apo-VIM-2): strong binding; also recorded: binds; binding to di-Zn(II) VIM-2 by 1H CPMG NMR (di-Zn(II) VIM-2): strong binding; also recorded: strong binder
O=C(O)CCC(NS(=O)(=O)c1ccccc1)C(=O)O (stereo not shown) [Compound 11] | – | – | IC50 (VIM-2; IC50 (VIM-2)): 1110 µM; IC50 (VIM-2; pIC50 (VIM-2)): 1100 µM
CN(C)c1ccc(/C=C/C(=O)c2ccccc2C(=O)O)cc1 [Compound 13] | 135 | – | differences between the inhibitory activity with or without excess Zn(II) (VIM-2): no obvious differences; binding to apo-VIM-2 by 1H CPMG NMR (apo-VIM-2): weak binding; also recorded: weakly; binding to di-Zn(II) VIM-2 by 1H CPMG NMR (di-Zn(II) VIM-2): strong binding; also recorded: binds strongly; inhibition of the tested class B MBLs (in words) (class B MBLs): broad-spectrum inhibition
COc1cc(CN2Cc3cccc(C(=O)O)c3C2=O)cc(OC)c1OC [Compound 26] | > 400 | > 400 | –
O=C(O)C(=Cc1ccc(-c2ccc(Cl)cc2)o1)C(=O)O [Compound 12] | 87 | – | differences between the inhibitory activity with or without excess Zn(II) (VIM-2): no obvious differences; binding to apo-VIM-2 by 1H CPMG NMR (apo-VIM-2): weak binding; also recorded: weakly; binding to di-Zn(II) VIM-2 by 1H CPMG NMR (di-Zn(II) VIM-2): strong binding; also recorded: binds strongly; inhibition of the tested class B MBLs (in words) (class B MBLs): broad-spectrum inhibition
O=C(O)c1cccc2c1C(=O)N(CC1CCCO1)C2 (stereo not shown) [Compound 38] | > 400 | > 400 | –
CC(=O)Nc1ccc(S(=O)(=O)N2CCCC2C(=O)O)cc1 (stereo not shown) [Compound 15] | > 1600 | – | –
COCCCN1Cc2cccc(C(=O)O)c2C1=O [Compound 40] | > 400 | > 400 | –
NC(=S)N/N=C1\C(=O)Nc2c(C(=O)O)cccc21 [Compound 7] | 199 | – | differences between the inhibitory activity with or without excess Zn(II) (VIM-2): no obvious differences; binding to apo-VIM-2 by 1H CPMG NMR (apo-VIM-2): binding; binding to di-Zn(II) VIM-2 by 1H CPMG NMR (di-Zn(II) VIM-2): binding; also recorded: binds
CNCc1ccc(-c2cccc(C(=O)O)c2)o1 [Compound 5] | > 1600 | – | –
Cc1ccc(-c2cn3nnc(C(=O)O)c3c(=O)[nH]2)cc1 [Compound 9] | 439 | – | –
O=C(O)C(Cc1ccc(O)cc1)NC1CCS(=O)(=O)C1 (stereo not shown) [Compound 14] | 669 | – | IC50 (VIM-2; [2]): 661 µM

The next lines start with results.

IC50 (VIM-2; [1]) [µM] | IC50 (VIM-1) [µM] | SMILES | further results
229 | > 400 | CC(c1ccncc1)N1Cc2cccc(C(=O)O)c2C1=O (stereo not shown) [Compound 29] | –
71.9 | > 400 | O=C(O)c1cccc2c1C(=O)N(CCc1ccccc1)C2 [Compound 39] | –
250 | > 400 | O=C(O)c1cccc2c1C(=O)N(Cc1ccc(F)cc1)C2 [Compound 23] | –
39.3 | > 400 | COc1cccc(N2Cc3cccc(C(=O)O)c3C2=O)c1 [Compound 32] | –
133 | > 400 | COc1ccccc1N1Cc2cccc(C(=O)O)c2C1=O [Compound 31] | –
168 | > 400 | CC(c1ccccc1)N1Cc2cccc(C(=O)O)c2C1=O (stereo not shown) [Compound 28] | IC50 (VIM-2; [2]): 166 µM
20.3 | > 400 | C=CCC1c2cccc(C(=O)O)c2C(=O)N1c1cccc(OC)c1 (stereo not shown) [Compound 42] | –
68.1 | > 400 | O=C(O)c1cccc2c1C(=O)N(C1CCCC1)C2 [Compound 37] | –
153 | > 400 | O=C(O)c1cccc2c1C(=O)N(Cc1cccs1)C2 [Compound 36] | –
320 | > 400 | COc1ccc(CN2Cc3cccc(C(=O)O)c3C2=O)cc1OC [Compound 25] | IC50 (VIM-2; [2]): 316 µM
17.8 | > 400 | O=C(O)c1cccc2c1C(=O)N(c1ccccc1)C2 [Compound 30] | –
74 | > 400 | O=C(O)c1cccc2c1C(=O)N(c1ccccc1Cl)C2 [Compound 33] | –
47.1 | > 400 | O=C(O)c1cccc2c1C(=O)N(Cc1ccccc1F)C2 [Compound 24] | –
< 400 | – | Cc1cc(N/N=C/c2ccc(O)c(C(=O)O)c2)nc(-c2ccccc2O)n1 [Compound 20] | differences between the inhibitory activity with or without excess Zn(II) (VIM-2): no obvious differences
349 | > 400 | O=C(O)c1cccc2c1C(=O)N(Cc1cccnc1)C2 [Compound 21] | –
7.7 | > 400 | O=C(O)c1cccc2c1C(=O)N(c1ccc(O)c(F)c1)C2 [Compound 35] | –
24.6 | > 400 | C=CCC1c2cccc(C(=O)O)c2C(=O)N1c1ccc(F)cc1 (stereo not shown) [Compound 41] | –
176 | > 400 | CN(C)c1ccc(CN2Cc3cccc(C(=O)O)c3C2=O)cc1 [Compound 27] | IC50 (VIM-2; [2]): 174 µM
60.3 | > 400 | CN(C)Cc1ccc(N2Cc3cccc(C(=O)O)c3C2=O)cc1 [Compound 34] | –

Source: paper PMC5369532, “NMR-filtered virtual screening leads to non-metal chelating metallo-β-lactamase inhibitors” (Chemical Science, 2016)
